Experimental data from ChEMBL document CHEMBL1123177, “1H NMR configurational correlation for retro-inverso dipeptides: application to the determination of the absolute configuration of "enkephalinase" inhibitors. Relationships between stereochemistry and enzyme recognition” (J Med Chem, 1986).

What follows are compounds tested against Neprilysin (Oryctolagus cuniculus) (UniProt P08049) (assay: Concentration for 50% inhibition of activity of rabbit kidney enkephalinase).
Sequence of Neprilysin (Oryctolagus cuniculus) (P08049 whole entry, looked up): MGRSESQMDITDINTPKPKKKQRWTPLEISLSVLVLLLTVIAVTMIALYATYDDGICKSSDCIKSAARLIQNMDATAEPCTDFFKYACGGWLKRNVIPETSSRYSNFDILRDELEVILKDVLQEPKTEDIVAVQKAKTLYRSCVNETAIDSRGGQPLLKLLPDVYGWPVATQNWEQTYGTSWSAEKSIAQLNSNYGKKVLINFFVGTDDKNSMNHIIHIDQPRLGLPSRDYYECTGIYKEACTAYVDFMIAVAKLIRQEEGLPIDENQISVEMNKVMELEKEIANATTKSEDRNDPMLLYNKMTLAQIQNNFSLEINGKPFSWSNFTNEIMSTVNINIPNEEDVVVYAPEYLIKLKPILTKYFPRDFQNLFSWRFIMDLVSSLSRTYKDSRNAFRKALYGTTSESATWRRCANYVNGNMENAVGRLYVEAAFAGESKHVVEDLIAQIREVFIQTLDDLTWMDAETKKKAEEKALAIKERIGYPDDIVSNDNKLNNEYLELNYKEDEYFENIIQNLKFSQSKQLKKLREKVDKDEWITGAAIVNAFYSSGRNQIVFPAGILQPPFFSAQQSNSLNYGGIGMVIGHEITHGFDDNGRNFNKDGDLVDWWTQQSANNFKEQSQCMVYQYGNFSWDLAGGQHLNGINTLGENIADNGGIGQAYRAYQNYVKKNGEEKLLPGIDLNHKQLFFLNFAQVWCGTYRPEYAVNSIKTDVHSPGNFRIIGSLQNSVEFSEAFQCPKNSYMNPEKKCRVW

IC50 | Structure (SMILES)
2.3 nM | O=C(O)CC(=O)NC(CS)Cc1ccccc1 (single isomer, unassigned; 7a)
210 nM | O=C(O)CC(=O)NC(CS)Cc1ccccc1 (single isomer, unassigned; 7b)
1.5 nM | CC(C)C[C@@H](C(=O)O)C(=O)N[C@H](CS)Cc1ccccc1 (racemic)
0.75 nM | CC(C)C[C@H](C(=O)O)C(=O)N[C@H](CS)Cc1ccccc1
0.65 nM | C[C@H](C(=O)O)C(=O)N[C@H](CS)Cc1ccccc1
0.54 nM | C[C@@H](C(=O)O)C(=O)N[C@H](CS)Cc1ccccc1 (racemic)
